# Measured values taken from ChEMBL document CHEMBL5532748, “Design, synthesis and antibacterial activity evaluation of ebselen derivatives in NDM-1 producing bacteria” (RSC Med Chem, 2024).
# Active and inactive are the calls of the source. The rule behind the calls is not given here.
# Legend:
# Escherichia coli [1] = experiment: Antibacterial activity against Escherichia coli producing NDM-1, CTX-M-15 and SHV-12 beta lactamases; format: functional
# Escherichia coli [2] = experiment: Antibacterial activity against Escherichia coli TG-1 transfected with Klebsiella pneumoniae full-length NDM-1 beta-lactamase gene; format: functional
# Caco-2 [3] = experiment: Antibacterial activity against Salmonella lomita SL131 infected in human Caco-2 cells assessed as reduction in bacterial survival rate at 32 to 64 ug/ml incubated for 6 hrs in presence of meropenem by agar dilution method; format: functional, cell-based; conditions: Salmonella enterica subsp. enterica serovar Lomita, dose 32-64 µg/ml
# Enterobacter cloacae [4] = experiment: Synergistic antibacterial activity against Enterobacter cloacae producing NDM-1, CTX-M-14 and TEM-1 beta-lactamases assessed as fractional inhibitory concentration index in presence of meropenem; format: functional
# Enterobacter cloacae [5] = experiment: Antibacterial activity against Enterobacter cloacae producing NDM-1, TEM-1 and SHV-12 beta-lactamases; format: functional
# Escherichia coli [6] = experiment: Antibacterial activity against Escherichia coli BJE-4 expressing NDM-1 gene; format: functional
# Citrobacter freundii [7] = experiment: Synergistic antibacterial activity against Citrobacter freundii producing NDM-1, CTX-M-3 and KPC-2 beta-lactamases assessed as fractional inhibitory concentration index in presence of meropenem; format: functional
# Caco-2 [8] = experiment: Antibacterial activity against Salmonella lomita SL131 infected in human Caco-2 cells assessed as reduction in bacterial survival rate at 64 ug/ml incubated for 6 hrs by agar dilution method; format: functional, cell-based; conditions: Salmonella enterica subsp. enterica serovar Lomita, dose 64.0 µg/ml
# Citrobacter freundii [9] = experiment: Antibacterial activity against Citrobacter freundii producing NDM-1 and SHV-12 beta-lactamases; format: functional
# Citrobacter freundii [10] = experiment: Antibacterial activity against Citrobacter freundii producing NDM-1 and SHV-12 in presence of meropenem; format: functional
# Escherichia coli [11] = experiment: Synergistic antibacterial activity against Escherichia coli TG-1 transfected with Klebsiella pneumoniae full-length NDM-1 beta lactamase gene assessed as fractional inhibitory concentration index in presence of meropenem; format: functional
# Enterobacter cloacae [12] = experiment: Antibacterial activity against Enterobacter cloacae producing NDM-1, IMP-4 and TEM-1 beta-lactamases in presence of meropenem; format: functional
# [13] = target: Metallo-beta-lactamase type 2 (Bacteria, UniProt C7C422); experiment: Inhibition of NDM-1 (unknown origin) using nitrocefin as substrate incubated for 15 to 60 mins by absorption based analysis
# Klebsiella pneumoniae [14] = experiment: Antibacterial activity against Klebsiella pneumoniae producing NDM-1, KPC-2 and SHV-12 beta-lactamases; format: functional
# Escherichia coli [15] = experiment: Antibacterial activity against Escherichia coli producing NDM-1 and CTX-M-15 beta-lactamases in presence of meropenem; format: functional
# Enterobacter cloacae [16] = experiment: Antibacterial activity against Enterobacter cloacae producing NDM-1, TEM-1 and SHV-12 beta-lactamase in presence of meropenem; format: functional
# Escherichia coli [17] = experiment: Synergistic antibacterial activity against Escherichia coli producing NDM-1 and CTX-M-15 beta-lactamases assessed as fractional inhibitory concentration index in presence of meropenem; format: functional
# Klebsiella pneumoniae [18] = experiment: Synergistic antibacterial activity against Klebsiella pneumoniae producing NDM-1, KPC-2 and SHV-12 beta-lactamases assessed as fractional inhibitory concentration index in presence of meropenem; format: functional
# Escherichia coli [19] = experiment: Synergistic antibacterial activity against Escherichia coli BJE-4 expressing NDM-1 gene assessed as fractional inhibitory concentration index in presence of meropenem; format: functional
# Citrobacter freundii [20] = experiment: Antibacterial activity against Citrobacter freundii producing NDM-1, CTX-M-3 and KPC-2 beta-lactamases in presence of meropenem; format: functional
# Citrobacter freundii [21] = experiment: Synergistic antibacterial activity against Citrobacter freundii producing NDM-1 and SHV-12 beta-lactamases assessed as fractional inhibitory concentration index in presence of meropenem; format: functional
# Escherichia coli [22] = experiment: Antibacterial activity against Escherichia coli producing NDM-1, CTX-M-15 and SHV-12 beta-lactamases in presence of meropenem; format: functional
# Escherichia coli [23] = experiment: Antibacterial activity against Escherichia coli producing NDM-1 and CTX-M-15 beta lactamases; format: functional
# Enterobacter cloacae [24] = experiment: Antibacterial activity against Enterobacter cloacae producing NDM-1, CTX-M-14 and TEM-1 beta-lactamases in presence of meropenem; format: functional
# Escherichia coli [25] = experiment: Antibacterial activity against Escherichia coli BJE-4 expressing NDM-1 gene in presence of meropenem; format: functional
# Escherichia coli [26] = experiment: Synergistic antibacterial activity against Escherichia coli producing NDM-1, CTX-M-15 and SHV-12 beta-lactamases assessed as fractional inhibitory concentration index in presence of meropenem; format: functional
# Klebsiella pneumoniae [27] = experiment: Antibacterial activity against Klebsiella pneumoniae producing NDM-1, KPC-2 and SHV-12 beta-lactamases in presence of meropenem; format: functional
# [28] = target: Metallo-beta-lactamase type 2 (Bacteria) (UniProt C7C422); experiment: Binding affinity to wild type NDM-1 (unknown origin) assessed as change in NDM-1 enzyme complex at 100 uM by ESI-MS analysis
# Enterobacter cloacae [29] = experiment: Synergistic antibacterial activity against Enterobacter cloacae producing NDM-1, TEM-1 and SHV-12 beta-lactamases assessed as fractional inhibitory concentration index in presence of meropenem; format: functional
# HEK-293T = experiment: Cytotoxicity against HEK293T cells assessed as reduction in cell viability at 8 to 64 ug/ml incubated for 48 hrs by MTT assay; format: toxicity, cell-based; conditions: human, dose 8-64 µg/ml
# Citrobacter freundii [30] = experiment: Antibacterial activity against Citrobacter freundii producing NDM-1, CTX-M-3 and KPC-2 beta-lactamases; format: functional
# Enterobacter cloacae [31] = experiment: Antibacterial activity against Enterobacter cloacae producing NDM-1, CTX-M-14 and TEM-1 beta-lactamases; format: functional
# Enterobacter cloacae [32] = experiment: Synergistic antibacterial activity against Enterobacter cloacae producing NDM-1, IMP-4 and TEM-1 beta-lactamases assessed as fractional inhibitory concentration index in presence of meropenem; format: functional
# Enterobacter cloacae [33] = experiment: Antibacterial activity against Enterobacter cloacae producing NDM-1, IMP-4 and TEM-1 beta-lactamases; format: functional
# Escherichia coli [34] = experiment: Antibacterial activity against Escherichia coli TG-1 transfected with Klebsiella pneumoniae full-length NDM-1 beta lactamase gene incubated in presence of meropenem; format: functional
# Sequence of Metallo-beta-lactamase type 2 (C7C422 whole entry): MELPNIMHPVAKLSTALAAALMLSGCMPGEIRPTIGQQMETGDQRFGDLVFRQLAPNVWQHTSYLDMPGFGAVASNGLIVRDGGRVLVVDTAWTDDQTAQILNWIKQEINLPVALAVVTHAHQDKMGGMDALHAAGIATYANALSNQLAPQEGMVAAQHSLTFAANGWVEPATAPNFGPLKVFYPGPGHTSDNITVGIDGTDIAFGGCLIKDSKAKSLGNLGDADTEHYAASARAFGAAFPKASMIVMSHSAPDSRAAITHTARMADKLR
# Sequence of Metallo-beta-lactamase type 2 (Bacteria) (C7C422 whole entry): as above
smiles,measurement,setting,value
CC(C)(C)OC(=O)NCCCCCCn1[se]c2ccccc2c1=O,MIC,Escherichia coli [1],> 64 µg/mL
same,MIC,Escherichia coli [2],> 64 µg/mL
same,Activity,Caco-2 [3],Active
same,fractional inhibitory concentration index (FICI),Enterobacter cloacae [4],0.188
same,MIC,Enterobacter cloacae [5],> 64 µg/mL
same,MIC,Escherichia coli [6],> 16 µg/mL
same,fractional inhibitory concentration index (FICI),Citrobacter freundii [7],0.375
same,Activity,Caco-2 [8],inactive
same,MIC,Citrobacter freundii [9],> 64 µg/mL
same,MIC,Citrobacter freundii [10],8 µg/mL
same,fractional inhibitory concentration index (FICI),Escherichia coli [11],0.125
same,MIC,Enterobacter cloacae [12],16 µg/mL
same,IC50,[13],26.8 µM
same,MIC,Klebsiella pneumoniae [14],> 64 µg/mL
same,MIC,Escherichia coli [15],8 µg/mL
same,MIC,Enterobacter cloacae [16],4 µg/mL
same,fractional inhibitory concentration index (FICI),Escherichia coli [17],0.25
same,fractional inhibitory concentration index (FICI),Klebsiella pneumoniae [18],0.5
same,fractional inhibitory concentration index (FICI),Escherichia coli [19],0.313
same,MIC,Citrobacter freundii [20],16 µg/mL
same,fractional inhibitory concentration index (FICI),Citrobacter freundii [21],0.25
same,MIC,Escherichia coli [22],8 µg/mL
same,MIC,Escherichia coli [23],> 64 µg/mL
same,MIC,Enterobacter cloacae [24],8 µg/mL
same,MIC,Escherichia coli [25],4 µg/mL
same,fractional inhibitory concentration index (FICI),Escherichia coli [26],0.25
same,MIC,Klebsiella pneumoniae [27],16 µg/mL
same,Activity,[28],Active
same,fractional inhibitory concentration index (FICI),Enterobacter cloacae [29],0.125
same,Activity,HEK-293T,Non-Toxic
same,MIC,Citrobacter freundii [30],> 128 µg/mL
same,MIC,Enterobacter cloacae [31],> 128 µg/mL
same,fractional inhibitory concentration index (FICI),Enterobacter cloacae [32],0.5
same,MIC,Enterobacter cloacae [33],> 64 µg/mL
same,MIC,Escherichia coli [34],4 µg/mL
CN(C)S(=O)(=O)NCCn1[se]c2ccccc2c1=O,MIC,Escherichia coli [2],> 64 µg/mL
same,MIC,Escherichia coli [6],> 16 µg/mL
same,fractional inhibitory concentration index (FICI),Escherichia coli [11],0.25
same,fractional inhibitory concentration index (FICI),Escherichia coli [19],0.625
same,MIC,Escherichia coli [25],8 µg/mL
same,MIC,Escherichia coli [34],≤ 8 µg/mL
CC(C)(C)C(=O)NCCn1[se]c2ccccc2c1=O,MIC,Escherichia coli [2],> 64 µg/mL
same,MIC,Escherichia coli [6],> 16 µg/mL
same,fractional inhibitory concentration index (FICI),Escherichia coli [11],2
same,fractional inhibitory concentration index (FICI),Escherichia coli [19],0.625
same,MIC,Escherichia coli [25],8 µg/mL
same,MIC,Escherichia coli [34],64 µg/mL
COC(=O)c1ccc(-n2[se]c3ccccc3c2=O)cc1OC,MIC,Escherichia coli [2],> 64 µg/mL
same,MIC,Escherichia coli [6],> 16 µg/mL
same,fractional inhibitory concentration index (FICI),Escherichia coli [11],0.25
same,IC50,[13],7.81 µM
same,fractional inhibitory concentration index (FICI),Escherichia coli [19],0.313
same,MIC,Escherichia coli [25],4 µg/mL
same,Activity,HEK-293T,Non-Toxic
same,MIC,Escherichia coli [34],≤ 8 µg/mL
CCS(=O)(=O)NCCn1[se]c2ccccc2c1=O,MIC,Escherichia coli [2],> 64 µg/mL
same,MIC,Escherichia coli [6],> 16 µg/mL
same,fractional inhibitory concentration index (FICI),Escherichia coli [11],0.5
same,fractional inhibitory concentration index (FICI),Escherichia coli [19],0.625
same,MIC,Escherichia coli [25],8 µg/mL
same,MIC,Escherichia coli [34],16 µg/mL
CSc1nnc(-n2[se]c3ccccc3c2=O)s1,MIC,Escherichia coli [2],> 64 µg/mL
same,MIC,Escherichia coli [6],> 16 µg/mL
same,fractional inhibitory concentration index (FICI),Escherichia coli [11],0.25
same,IC50,[13],8.8 µM
same,fractional inhibitory concentration index (FICI),Escherichia coli [19],0.625
same,MIC,Escherichia coli [25],8 µg/mL
same,MIC,Escherichia coli [34],≤ 8 µg/mL
CCc1ccc(-n2[se]c3ccccc3c2=O)cc1,MIC,Escherichia coli [2],> 64 µg/mL
same,MIC,Escherichia coli [6],> 16 µg/mL
same,fractional inhibitory concentration index (FICI),Escherichia coli [11],2
same,fractional inhibitory concentration index (FICI),Escherichia coli [19],0.625
same,MIC,Escherichia coli [25],8 µg/mL
same,MIC,Escherichia coli [34],64 µg/mL
O=c1c2ccccc2[se]n1CCNS(=O)(=O)c1ccc(F)cc1,MIC,Escherichia coli [2],> 64 µg/mL
same,MIC,Escherichia coli [6],> 16 µg/mL
same,fractional inhibitory concentration index (FICI),Escherichia coli [11],0.25
same,fractional inhibitory concentration index (FICI),Escherichia coli [19],0.625
same,MIC,Escherichia coli [25],8 µg/mL
same,MIC,Escherichia coli [34],≤ 8 µg/mL
CC(C)(C)OC(=O)N1CCC(n2[se]c3ccccc3c2=O)CC1,MIC,Escherichia coli [2],> 64 µg/mL
same,MIC,Escherichia coli [6],> 16 µg/mL
same,fractional inhibitory concentration index (FICI),Escherichia coli [11],0.5
same,fractional inhibitory concentration index (FICI),Escherichia coli [19],0.625
same,MIC,Escherichia coli [25],8 µg/mL
same,MIC,Escherichia coli [34],16 µg/mL
CC(C)(C)C(=O)NCCCn1[se]c2ccccc2c1=O,MIC,Escherichia coli [2],> 64 µg/mL
same,MIC,Escherichia coli [6],> 16 µg/mL
same,fractional inhibitory concentration index (FICI),Escherichia coli [11],0.5
same,fractional inhibitory concentration index (FICI),Escherichia coli [19],0.625
same,MIC,Escherichia coli [25],8 µg/mL
same,MIC,Escherichia coli [34],16 µg/mL
CC(C)(C)OC(=O)NCCCCCn1[se]c2ccccc2c1=O,MIC,Escherichia coli [2],> 64 µg/mL
same,MIC,Escherichia coli [6],> 16 µg/mL
same,fractional inhibitory concentration index (FICI),Escherichia coli [11],0.5
same,fractional inhibitory concentration index (FICI),Escherichia coli [19],0.625
same,MIC,Escherichia coli [25],8 µg/mL
same,MIC,Escherichia coli [34],16 µg/mL
CC(C)(C)OC(=O)NCCCn1[se]c2ccccc2c1=O,MIC,Escherichia coli [2],> 64 µg/mL
same,MIC,Escherichia coli [6],> 16 µg/mL
same,fractional inhibitory concentration index (FICI),Escherichia coli [11],0.5
same,fractional inhibitory concentration index (FICI),Escherichia coli [19],0.625
same,MIC,Escherichia coli [25],8 µg/mL
same,MIC,Escherichia coli [34],16 µg/mL
